System: Mpro-WT and Mpro-Δ23G 1:1 mixture
Conditions: hamster, in vivo

CC(C)(C)[C@H](NC(=O)C(F)(F)F)C(=O)N1C[C@H]2[C@@H]([C@H]1C(=O)N[C@H](C#N)C[C@@H]1CCNC1=O)C2(C)C [nirmatrelvir]
Mpro-WT dominance: > 97%

— paper PMC12663368 (Nature Communications, 2025)
